# Source: US8075874B2, “Methods for disinfecting and removing smear layer from tooth surfaces” (Dentsply International, Inc., priority 2002, dated 2011)
# Columns and labels:
# [1] = Removal of smear layer from root end cavity preparations (SEM); design: species or system human; conditions: solution left in cavity five minutes
# Experimental: Extracted, human single-rooted teeth were used in this part of the experiment.
# The working length of each canal was determined by placing and moving a #15 K file apically in the canal until it exited from the apical foramen.
# The access cavities were closed with Cavit. The roots were then wrapped in moist gauze and stored in a closed glass bottle at room temperature and 100% humidity for one week.
# Two coats of nail polish were applied to the external surface of each root.
# Apical cavity preparations were made in each of the roots. A #1 round bur in a high-speed handpiece with water coolant was used to create a small opening into the gutta-percha filling material.
# The roots were then randomly divided into two groups. […] The solution was left in the cavity for five minutes and then rinsed with 10 ml of distilled water. In Group 2, the preparations were rinsed with 5 ml of ADD. This solution was also left in the root end cavities for five minutes and then rinsed with 5 ml of distilled water. After drying with paper points, the roots were split in halves using a slow speed diamond saw (Labut Agar Scientific, Cambridge, England).
# Half of each sample was placed into a gluteraldehyde solution for 24 h. […] The presence or absence of smear layer on the root end cavity preparations was evaluated. The erosion of dentinal tubules was also assessed.
# Enterococcus faecalis [2] = experiment: Zone of inhibition on inoculated TSA plates; type: cell-based; conditions: E. faecalis; for bactericidal effect upon dilution (zone of inhibition): diluted five- or ten-fold
# Experimental: In the first test, the zone of inhibition was measured on plates inoculated with Enterococcus faecalis. An overnight culture of E. faecalis (ATCC 4082) was standardized to 0.11 optical density (O.D.) measured at 570 nm. One hundred microliters of the microorganism was spread onto a trypticase soy agar (TSA) plate with the use of a sterile L-shaped glass rod. One-quarter inch sterile S & S filter paper (Schleicher & Schuell) was placed in each of the four quadrants of the TSA plate. […] Eight replicates were prepared for each of the sample solutions. The plates were incubated overnight at 37° C. for 24 hours and the zones of inhibition were measured in millimeters.
# [3] = Removal of smear layer from coronal cavity preparations (SEM); conditions: third molars, Class I preparations; solution left 5 minutes
# Experimental: Sound third molars were collected and stored in deionized water. Class I preparations were made following conventionally accepted procedures in the occlusal surfaces of the teeth. The teeth were randomly divided into two groups. […] After this treatment each preparation was rinsed with copious amounts of water to eliminate the residual effect of sodium hypochlorite. Group 2: ADD solution was left in the cavity for 5 minutes. After this treatment each preparation was rinsed with copious amounts of distilled water to eliminate the residual effect of ADD. After irrigation, the crowns were split in half using a diamond saw and constant water spray. Half of each sample was placed into a gluteraldehyde solution for 24 h. The fixed specimens were then rinsed twice by a sodium buffered solution (pH 7.2), treated with osmium tetraoxide for one hour, rinsed with ascending concentrations of ethyl alcohol 30%-100%, and then placed in a dessicator for 24 h. […] The presence or absence of smear layer on the walls of each cavity was evaluated. The erosion of dentinal tubules was also assessed.
# [4] = Removal of smear layer from root surfaces of teeth (SEM); conditions: saturated cotton pellet left 5 minutes
# Experimental: The coronal one-third root surfaces of these teeth were curetted following conventionally accepted procedures. The samples were randomly divided into two groups.
# After this treatment each root surface was rinsed with copious amounts of distilled water to eliminate the residual effect of sodium hypochlorite.
# Group 2: A cotton pellet saturated with ADD solution was left on the root surface preparations for 5 minutes. After this treatment each preparation was rinsed with copious amounts of distilled water to eliminate the residual effect of ADD.
# After irrigation, the entire tooth was split in half using a diamond saw and constant water spray. Half of each sample was placed into a gluteraldehyde solution for 24 h. The fixed specimens were then rinsed twice by a sodium buffered solution (pH 7.2), treated with osmium tetraoxide for one hour, rinsed with ascending concentrations of ethyl alcohol 30%-100%, and then placed in a dessicator for 24 h. Finally, each specimen was mounted on a special button, and coated with 25 μm of gold-palladium (Au—Pd) (Wakabayashi et al., 1995). The presence or absence of smear layer on the root surfaces was evaluated. The erosion of dentinal tubules was also assessed.
# [5] = Removal of smear layer from root canal walls (SEM); conditions: extracted human teeth; 5 min contact; ADD group instrumented with 1% sodium hypochlorite as irrigant
# Description: Extracted maxillary and mandibular human teeth were used for this study. The working lengths of these teeth were between 21-25 millimeters. The teeth were scaled of any calculus and other surface debris (soft tissue and/or alveolar bone) using hand scalers. After preparing conventional access preparations through the incisal or occlusal surfaces of the test teeth, a K-type file (size 10) was used to determine the working length of each tooth by penetrating the apical foramen and pulling back to the clinical apical foramen. […] The apex of each tooth was enlarged to size 30 files.
# After complete cleaning and shaping, the canals were irrigated with 1 ml of NaOCl and a barbed broach wrapped with cotton was taken to the canal terminus and left for five minutes to ensure uniform direct contact of the irrigant with the entire canal. Upon removal of the barbed broach, the canal was irrigated with 4 ml of NaOCl and rinsed with 10 ml of distilled water. Group 2: NSET was performed using 1% sodium hypochlorite as root canal irrigant. […] Upon removal of the barbed broach, the canal was irrigated with 4 ml of ADD and rinsed with 10 ml of distilled water. […] The presence or absence of smear layer at the coronal, middle, and apical portion of each canal was evaluated. The erosion of dentinal tubules was also assessed at different levels of each canal.
# [6] = system: root canals infected with whole saliva; experiment: Disinfection of human root canals infected with whole saliva
# Description: It will be apparent to those of skill in the art that a solution such as the one described herein (i.e., one that has improved biocompatibility and is effective in a shorter period of time than previously known treatments) is highly desirable, particularly in the health care fields. Studies have also shown that, unlike other previously known dental irrigants, the solution of the present invention maintains the desired antimicrobial effect at dilutions up to 1:200. […] In a further study undertaken to evaluate the antimicrobial properties of the presently described solution, human root canals were infected with whole saliva and then treated with either 5.25% NaOCl or a solution of doxycycline, polysorbate 80, and citric acid. While the NaOCl effectively disinfected only 37 out of 60 teeth, the solution of the present invention disinfected 59 out of 60 teeth. The importance and desirability of such improved antimicrobial properties can be easily appreciated, particularly by those of skill in the art.
# [7] = Removal of smear layer from prepared crown preparations (SEM); conditions: saturated cotton pellet left 5 minutes
# Experimental: Sound third molars were collected and stored in deionized water. Crown preparations were made following conventionally accepted procedures. The samples were randomly divided into two groups.
# After this treatment each preparation was rinsed with copious amounts of distilled water to eliminate the residual effect of sodium hypochlorite.
# Group 2: A cotton pellet saturated with ADD solution was left on the crown preparations for 5 minutes. After this treatment each preparation was rinsed with copious amounts of distilled water to eliminate residual ADD.
# After irrigation, the crown preparations were split in half using a diamond saw and constant water spray. Half of each sample was placed into a gluteraldehyde solution for 24 h. The fixed specimens were then rinsed twice by a sodium buffered solution (pH 7.2), treated with osmium tetraoxide for one hour, rinsed with ascending concentrations of ethyl alcohol 30%-100%, and then placed in a dessicator for 24 h. Finally, each specimen was mounted on a special button, and coated with 25 μm of gold-palladium (Au—Pd) (Wakabayashi et al., 1995). The presence or absence of smear layer on the walls of each cavity was evaluated. The erosion of dentinal tubules was also assessed.
# Enterococcus faecalis [8] = experiment: Minimum inhibitory concentration (serial dilution, turbidity); type: cell-based
# Experimental: In the second test, the minimum inhibitory concentration (MIC) was measured. E. faecalis was cultured overnight and the concentration was adjusted to 0.11 O.D. at 570 nm. The test solutions were serially diluted from 1:2 up to 1:2048 dilutions. One ml of 2× trypticase soy broth (TSB) and the same amount of a test solution were mixed in various tubes. One hundred microliters of the standardized E. faecalis was added into each of the test tubes and were incubated overnight at 37° C. The presence or absence of turbidity was determined the following day.
Compound,presence or absence of smear layer on root end cavity preparations [1],bactericidal effect upon dilution (zone of inhibition) (Enterococcus faecalis [2]),"zone of inhibition, undiluted versus diluted (Enterococcus faecalis [2]; undiluted, 1:5, 1:10)",presence or absence of smear layer on cavity walls [3],presence or absence of smear layer on root surfaces [4],presence or absence of smear layer on root canal walls [5],teeth disinfected [6],presence or absence of smear layer on crown preparations [7],"dilution up to which solution is effective (minimum inhibitory concentration test) (Enterococcus faecalis [8]; E. faecalis, overnight at 37° C., turbidity)",dilution limit of antimicrobial / bactericidal effect (Enterococcus faecalis [8]; summary statement in description)
"[Na+].[O-]Cl [5.25% NaOCl, sodium hypochlorite]",presence of smear layer on the surface of all cavity preparations,some bactericidal effect,more effective when undiluted than at 1:5 or 1:10 dilution,presence of smear layer on the walls of all teeth,presence of smear layer on the surface of all roots,presence of smear layer on the entire root canal walls of all teeth,37 out of 60,presence of smear layer on the surface of all crowns,–,–
"O=C(O)CN(CCN(CC(=O)O)CC(=O)O)CC(=O)O [EDTA, ethylenediamine tetraacetic acid]",–,no bactericidal properties,–,–,–,–,–,–,no antibacterial effects at any dilution level,ineffective in anything other than an undiluted state
